Earlier results, collected in paper PMC4642890 (Bioorganic & medicinal chemistry letters, 2015).

Test system: neuropathic pain
Settings: rodent model

**Q.** With “Tyr^1-DAla^2-Gly^3-Phe^4-Met^5-Pro^6-Leu^7-Trp^8-NH-[3’,5’-Bzl(CF3)2] [TY027]” as the substance, how does the “effect on neuropathic pain” value read?
**A.** The value was “reverse neuropathic pain”.

**Q.** What about the opioid-induced tolerance of the same substance?
**A.** Its opioid-induced tolerance is “no sign of opioid-induce tolerance”.

**Q.** And the reward liability?
**A.** The reward liability was “no development of reward liability”.

**Q.** For “Tyr^1-DAla^2-Gly^3-Phe^4-Met^5-Pro^6-Leu^7-Trp^8-O-[3’,5’-Bzl(CF3)2] [TY005]”, which “effect on neuropathic pain” value is on record?
**A.** Its value is “reverse neuropathic pain”.

**Q.** And the opioid-induced tolerance?
**A.** The opioid-induced tolerance was “no sign of opioid-induce tolerance”.

**Q.** And the reward liability?
**A.** The reward liability was “no development of reward liability”.
